Patent US20180118721A1, “PYRIMIDINE DERIVATIVES” (Merck Patent GmbH, priority 2015, published 2018)

Tests used:
[1] = molecular target: T1, humanMTH1 (aminoacids 42 to 197) (Homo sapiens, UniProt P36639); experiment: Binding affinities and kinetics on MTH1 surfaces by surface plasmon resonance (SPR); conditions: on MTH1
T1 construct: humanMTH1 (aminoacids 42 to 197); His tag at the N-terminus; purchased Abnova ab99390; host or cells: E. coli

[2] = Microsomal stability (intrinsic clearance), human; type: in vitro ADME; conditions: human liver microsomes, 0.5 mg/ml protein, Clint
Text: (§1) A microsomal stability assay is used to measure in vitro clearance (Clint). The assay involves measuring the rate of disappearance of a compound due to its intrinsic attitude to be metabolized (“intrinsic” meaning that the disappearance is not affected by other properties like permeability, binding etc. that play a role when quantifying in vivo clearance). The microsomal stability (intrinsic clearance, Clint) and thus metabolic stability is generally given as μl/min/mg protein. It can be visualized as the volume of solution that 1 mg of microsomes is able to clear of the compound in one minute.
(§2) A Tecan Genesis workstation (RSP 150/8) was used for to perform the microsomal incubations. Analysis was carried out using a Waters ACQUITY UPLC system coupled to an ABSciex API3000 mass spectrometer. Data analysis was performed using Assay Explorer (Symyx).
(§3) Column: Acquity UPLC BEH C18, 2.1×50 mm, 1.7 μm (Waters) Mobile phases: A=0.1% formic acid in water; B=acetonitrile
(§4) Flow rate: 0.750 mL/min; Detection: ESI, MRM; Injection: 10 μL; Column temperature: 50° C.
(§5) • Potassium phosphate buffer: 0.05 M potassium phosphate buffer pH 7.4 containing 1 mM MgCl2 • NADPH (nicotinamide adenine dinucleotide phosphate): 22.5 mg NADPH-Na4 in 1.8 ml potassium phosphate buffer • Acetonitrile: 50 Vol % acetonitrile (1 volume acetonitrile, 1 volume water) • DMSO: 20 Vol % DMSO in water • Stock solution of 20 mg/ml human or mouse liver microsomes (protein)/ml in phosphate buffer • Stock solution of 10 mM compound in 100% DMSO
(§6) Dilution of test compounds was done in 2 steps starting from a 10 mM stock solution of the respective compound in 100% DMSO. First 4 μl stock solution was added to 196 μl of 20 Vol % DMSO. In a second step, 10 μl of the first dilution were added to 1590 μl potassium phosphate buffer to achieve a final concentration of 1.25 μM in the final compound dilution. Thus, the amount of organic solvent in the assay was kept to a minimum (<1%).
(§7) The human or mouse liver microsome (protein) solution to be used in the assay was prepared by mixing 750 μl stock solution (20 mg/ml) and 2250 μl potassium phosphate buffer to a final concentration of 5 mg/ml.
(§8) Incubation was carried out on a 96 deep well incubation plate. 160 μl per well of the final compound dilution were transferred onto the incubation plate. Four samples of each compound dilution were assayed. 20 μl/well liver microsome solution was added to each well and the samples were then preincubated for 5 min at 37° C. and 800 rpm agitation. Two reference compounds (verapamil and dextromethorphan) were used in parallel in every experiment and for each species (human or mouse microsomes) to ensure system performance and for comparison.
(§9) On a separate stop plate, 160 μl acetonitrile were added per well.
(§10) After preincubation, i.e. at time t1=0 minutes, 18 μl samples of incubated compound solution and were transferred and added per well (containing acetonitrile) on the stop plate to prevent a reaction (0 minutes control samples, 4 samples per compound). Equally, 18 μl samples of incubated reference compound solution were transferred and added per well (containing acetonitrile) on the stop plate at time t1=0 minutes and again after 30 minutes (t4), solubility and chemical stability of the compound were checked. […]

[3] = Microsomal stability (intrinsic clearance), mouse; type: in vitro ADME; conditions: mouse liver microsomes, 0.5 mg/ml protein, Clint
Text: as §1, §2, §3, §4, §5, §6, §7, §8, §9, §10

## CNc1cc(-c2cccc(Cl)c2Cl)nc(N)n1 [TH-287, reference compound]
[1]; calculated on the basis of the KD values
  residence time: < 1 min
[1]; value in brackets
  residence time: 0.9 min
[2]
  Microsomal stability human: 32 μl/min/mg prot.
[3]
  Microsomal stability mouse: 444 μl/min/mg prot.
